Our source for the T/C values is PubChem BioAssay AID330 (DTP/NCI, 2004).

Several values for one entry are separate records, joined by “and”; a condition that tells them apart may be missing. Equal values may be shown once. Inconclusive results and toxic doses are left out.

For this test, the system named is P388 leukemia ip, CD2F1 mice, survival T/C. Description: NCI In Vivo Anticancer Drug Screen. Data for tumor model P388 Leukemia (intraperitoneal) in CD2F1 (CDF1) mice. The note with it: endpoint: median survival time, higher = longer survival. The gist of the method:
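Mice carrying the transplanted tumor received test compound or vehicle. Survival was recorded in each group, and the value is the treated-group measurement divided by that of the vehicle-treated control group.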

[1] abbreviates: dose: 50.0 mg/kg/injection, schedule: Q01DX009 (ip), vehicle: saline with Tween-80.
Setting [2] is: dose: 100.0 mg/kg/injection, schedule: Q01DX009 (ip), vehicle: saline with Tween-80.
Setting [3] is: dose: 60.0 mg/kg/injection, schedule: Q01DX005 (ip), vehicle: saline with Tween-80.
[4] abbreviates: dose: 120.0 mg/kg/injection, schedule: Q01DX005 (ip), vehicle: saline with Tween-80.
Where [5] appears, read: dose: 50.0 mg/kg/injection, schedule: Q01DX005 (ip), vehicle: saline with Tween-80.
Where [6] appears, read: dose: 100.0 mg/kg/injection, schedule: Q01DX005 (ip), vehicle: saline with Tween-80.
The mark [7] stands for this setting: dose: 200.0 mg/kg/injection, schedule: Q01DX005 (ip), vehicle: saline with Tween-80.
Where [8] appears, read: dose: 50.0 mg/kg/injection, schedule: Q01DX005 (ip), vehicle: Klucel (hydroxypropylcellulose) (HPC).
Setting [9] is: dose: 100.0 mg/kg/injection, schedule: Q01DX005 (ip), vehicle: Klucel (hydroxypropylcellulose) (HPC).
Where [10] appears, read: dose: 200.0 mg/kg/injection, schedule: Q01DX005 (ip), vehicle: Klucel (hydroxypropylcellulose) (HPC).
[11] abbreviates: dose: 200.0 mg/kg/injection, schedule: Q01DX009 (ip), vehicle: saline with Tween-80.

Consider `Cc1ccc(C)c(NC(=O)Nc2nccs2)c1`, for which the T/C was 99 % of control (dose: 25.0 mg/kg/injection, schedule: Q01DX009 (ip), vehicle: Klucel (hydroxypropylcellulose) (HPC)); 90 % of control (dose: 50.0 mg/kg/injection, schedule: Q01DX009 (ip), vehicle: Klucel (hydroxypropylcellulose) (HPC)); 91 % of control (dose: 200.0 mg/kg/injection, schedule: Q01DX009 (ip), vehicle: Klucel (hydroxypropylcellulose) (HPC)).

For `Clc1nnc(Cl)s1`, the T/C reads like this: (dose: 25.0 mg/kg/injection, schedule: Q01DX009 (ip), vehicle: saline with Tween-80) 96 % of control; under setting [1], 95 % of control; under setting [2], 101 % of control.

In the case of `Oc1cc2c(cc1C(c1ccc(Cl)cc1)N1CCOCC1)OCO2` (centres undefined), the T/C under setting [3] was 102 % of control; the T/C under setting [4] is 111 % of control; the T/C (dose: 240.0 mg/kg/injection, schedule: Q01DX005 (ip), vehicle: saline with Tween-80) is 124 % of control.

In the case of `CC(=O)O/N=C(C)/C(C)=N/Nc1ccccc1`, the T/C is, setting by setting: under setting [5], 93 % of control; under setting [6], 89 % of control; under setting [7], 87 % of control.

As for `CCN(CC)CCOc1ccc(C=Nc2ccc3c4ccccc4n(CC)c3c2)cc1`, the T/C is 100 % of control (dose: 100.0 mg/kg/injection, schedule: Q01DX001 (ip), vehicle: Klucel (hydroxypropylcellulose) (HPC)); 100 % of control (dose: 200.0 mg/kg/injection, schedule: Q01DX001 (ip), vehicle: Klucel (hydroxypropylcellulose) (HPC)); 99 % of control (dose: 400.0 mg/kg/injection, schedule: Q01DX001 (ip), vehicle: Klucel (hydroxypropylcellulose) (HPC)).

In the case of `C#CCSc1nnnn1-c1ccc(Br)c(C)c1`, the T/C was 101 % of control under setting [8], 92 % of control under setting [9] and 101 % of control under setting [10].

Consider `CCOC(=O)/C=C/C(=O)N1CCN(C(=O)/C=C/C(=O)OCC)C(C)C1` (centres undefined), for which the T/C is 113 % of control under setting [8]; 108 % of control (dose: 90.0 mg/kg/injection, schedule: Q01DX005 (ip), vehicle: Klucel (hydroxypropylcellulose) (HPC)); 116 % of control under setting [9]; 112 % of control (dose: 133.0 mg/kg/injection, schedule: Q01DX005 (ip), vehicle: Klucel (hydroxypropylcellulose) (HPC)).

`Cc1cccc(NCc2ccccn2)n1`: the T/C was 103 % of control under setting [5] and 103 % of control under setting [6].

`COc1nc(NC2OC(CO)C(O)C2O)cc(=O)n1C` (centres undefined): the T/C was 93 % of control under setting [3] and 94 % of control under setting [4].

In the case of `CSc1nc(Cl)c(Br)c(Sc2nc(N)nc3nc[nH]c23)n1`, the T/C is 122 % of control under setting [1]; 109 % of control under setting [2]; 118 % of control (dose: 100.0 mg/kg/injection, schedule: Q04DX003 (ip), vehicle: saline with Tween-80); 150 % of control (dose: 200.0 mg/kg/injection, schedule: Q04DX003 (ip), vehicle: saline with Tween-80).

Consider `CCOC(=O)c1nc(OCC)nc(OCC)c1I`, for which the T/C reads like this: (dose: 12.5 mg/kg/injection, schedule: Q01DX009 (ip), vehicle: distilled water + Tween-80) 112 % of control; (dose: 25.0 mg/kg/injection, schedule: Q01DX009 (ip), vehicle: distilled water + Tween-80) 107 % of control; (dose: 50.0 mg/kg/injection, schedule: Q01DX009 (ip), vehicle: distilled water + Tween-80) 96 % of control; (dose: 100.0 mg/kg/injection, schedule: Q01DX009 (ip), vehicle: distilled water + Tween-80) 95 % of control.

`CCC(O)(C(=O)O)c1ccccc1` (centres undefined): the T/C runs as follows: (dose: 25.0 mg/kg/injection, schedule: Q04DX003 (ip), vehicle: saline) 105 % of control; (dose: 50.0 mg/kg/injection, schedule: Q04DX003 (ip), vehicle: saline) 97 % of control; (dose: 100.0 mg/kg/injection, schedule: Q04DX003 (ip), vehicle: saline) 94 % of control; (dose: 200.0 mg/kg/injection, schedule: Q04DX003 (ip), vehicle: saline) 100 % of control.

As for `C[Si]1(C)CCCCC1`, the T/C by setting is: (dose: 50.0 mg/kg/injection, schedule: Q01DX009 (ip), vehicle: saline) 102 % of control; (dose: 100.0 mg/kg/injection, schedule: Q01DX009 (ip), vehicle: saline) 95 % of control; (dose: 200.0 mg/kg/injection, schedule: Q01DX009 (ip), vehicle: saline) 101 % of control; (dose: 400.0 mg/kg/injection, schedule: Q01DX009 (ip), vehicle: saline) 102 % of control.

For the compound `Cc1ccccc1-n1c(COc2c(C)cccc2C)n[nH]c1=S`, the T/C reads like this: under setting [8], 93 % of control; under setting [9], 97 % of control; under setting [10], 99 % of control.

`COc1cccc2c(Nc3ccc4c(c3)OCO4)c(C(=O)O)cnc12`: the T/C is, setting by setting: (dose: 60.0 mg/kg/injection, schedule: Q01DX005 (ip), vehicle: Klucel + Tween-80) 94 % of control; (dose: 120.0 mg/kg/injection, schedule: Q01DX005 (ip), vehicle: Klucel + Tween-80) 103 % of control.

Consider `COc1cc(C2C(C(=O)OC/C=C/c3ccc4c(c3)OCO4)C(c3cc(OC)c(OC)c(OC)c3)C2C(=O)OC/C=C/c2ccc3c(c2)OCO3)cc(OC)c1OC` (centres undefined), for which the T/C was 87 % of control under setting [1]; 93 % of control under setting [2]; 95 % of control under setting [11]; 102 % of control (dose: 400.0 mg/kg/injection, schedule: Q01DX009 (ip), vehicle: saline with Tween-80).

In the case of `CCC1CC(O)c2c(O)c3c(c(O)c2C1O)C(=O)c1cccc(O)c1C3=O` (centres undefined) (tested in a mixture with another compound), the T/C runs as follows: (dose: 0.25 mg/kg/injection, schedule: Q04DX003 (ip), vehicle: other) 102 % of control; (dose: 30.0 micrograms/kg/injection, schedule: Q01DX009 (ip), vehicle: other) 107 % of control; (dose: 60.0 micrograms/kg/injection, schedule: Q01DX009 (ip), vehicle: other) 106 % of control; (dose: 130.0 micrograms/kg/injection, schedule: Q01DX009 (ip), vehicle: other) 98 % of control.

For `CCn1c2ccccc2c2cc(N=Cc3cccc([N+](=O)[O-])c3)ccc21`, the T/C reads like this: under setting [1], 97 % of control; under setting [2], 98 % of control; under setting [11], 88 % of control.

For the compound `OCc1c(CO)c(-c2ccc(Cl)c(Cl)c2)n2c1CCC2`, the T/C runs as follows: (dose: 13.5 mg/kg/injection, schedule: Q01DX009 (ip), vehicle: saline with Tween-80) 107 % of control; (dose: 27.0 mg/kg/injection, schedule: Q01DX009 (ip), vehicle: saline with Tween-80) 109 % of control; (dose: 54.0 mg/kg/injection, schedule: Q01DX009 (ip), vehicle: saline with Tween-80) 109 % of control; under setting [2], 116 % of control and 118 % of control; under setting [11], 116 % of control.

On to `CC(NNC(=S)N1CC2CCC(CC2)C1)c1cc2ccccc2cn1` (centres undefined), for which the T/C by setting is: under setting [5], 114 % of control; under setting [6], 112 % of control; under setting [7], 121 % of control.

With `COc1cc2cc(c1Cl)N(C)C(=O)CC(OC(=O)C(C)N(C)C(=O)C(C)C)C1(C)OC1C(C)C1CC(O)(NC(=O)O1)C(OC)/C=C/C=C(C)C2O` (centres undefined), the T/C is, setting by setting: (dose: 0.02 mg/kg/injection, schedule: Q01DX009 (ip), vehicle: steriod suspending solution) 168 % of control; (dose: 0.05 mg/kg/injection, schedule: Q01DX009 (ip), vehicle: steriod suspending solution) 150 % of control; (dose: 0.1 mg/kg/injection, schedule: Q01DX009 (ip), vehicle: steriod suspending solution) 186 % of control; (dose: 0.2 mg/kg/injection, schedule: Q01DX009 (ip), vehicle: steriod suspending solution) 213 % of control; (dose: 32.0 micrograms/kg/injection, schedule: Q01DX009 (ip), vehicle: distilled water + alcohol) 159 % of control.

Turning to `O=[N+]([O-])c1ccc2c(c1)c(S(=O)(=O)O)cc1nonc12`, the T/C is 98 % of control (dose: 12.5 mg/kg/injection, schedule: Q01DX005 (ip), vehicle: saline); 95 % of control (dose: 25.0 mg/kg/injection, schedule: Q01DX005 (ip), vehicle: saline); 95 % of control under setting [5]; 90 % of control (dose: 50.0 mg/kg/injection, schedule: Q01DX005 (ip), vehicle: saline); 93 % of control under setting [7].

For the compound `Cc1ccc2cccnc2c1NCCCCCNC(C)C`, the T/C runs as follows: (dose: 12.5 mg/kg/injection, schedule: Q01DX005 (ip), vehicle: saline with Tween-80) 97 % of control; (dose: 25.0 mg/kg/injection, schedule: Q01DX005 (ip), vehicle: saline with Tween-80) 100 % of control; under setting [5], 100 % of control and 97 % of control.
